Paper PMC8910432 (International Journal of Molecular Sciences, 2022)

Legend:
[1] = biological target: RBD (N501Y) spike protein and human ACE2 (Severe acute respiratory syndrome coronavirus 2, UniProt P0DTC2, N501Y); format: binding, SARS-CoV-2; human; conditions: for inhibitory effect on interaction between RBD (N501Y) spike protein and human ACE2: 10 µM
RBD (N501Y) = RBD (N501Y) (Severe acute respiratory syndrome coronavirus 2, UniProt P0DTC2, N501Y); format: binding, SARS-CoV-2

| Molecule | inhibitory effect on interaction between RBD (N501Y) spike protein and human ACE2 [1] | concentration from which inhibition is significant [1] | reduction of the binding between RBD (N501Y) spike protein and ACE2 [1] | TA adsorption onto RBD (QCMD) (RBD (N501Y)) |
| --- | --- | --- | --- | --- |
| cyanidin-3-O-glucoside | only TA, TGG, and corilagin show a significant inhibitory effect | – | – | – |
| OC[C@H]1O[C@@H](Oc2cc3c(O)cc(O)cc3[o+]c2-c2ccc(O)cc2)[C@H](O)[C@@H](O)[C@@H]1O [pelargonidin-3-O-glucoside] | only TA, TGG, and corilagin show a significant inhibitory effect | – | – | – |
| O=C(OC[C@H]1O[C@@H](OC(=O)c2cc(O)c(O)c(O)c2)[C@H](O)[C@@H](OC(=O)c2cc(O)c(O)c(O)c2)[C@@H]1O)c1cc(O)c(O)c(O)c1 [TGG, 1,3,6-tri-O-galloyl-β-D-glucose] | up to 50% | ≥ 0.1 µM | – | – |
| O=C(OC[C@H]1OC(OC(=O)c2cc(O)c(O)c(OC(=O)c3cc(O)c(O)c(O)c3)c2)[C@H](OC(=O)c2cc(O)c(O)c(OC(=O)c3cc(O)c(O)c(O)c3)c2)[C@@H](OC(=O)c2cc(O)c(O)c(OC(=O)c3cc(O)c(O)c(O)c3)c2)[C@@H]1OC(=O)c1cc(O)c(O)c(OC(=O)c2cc(O)c(O)c(O)c2)c1)c1cc(O)c(O)c(OC(=O)c2cc(O)c(O)c(O)c2)c1 (stereo partly drawn) [TA, 1,2,3,4,6-penta-O-{3,4-dihydroxy-5-((3,4,5-trihydroxybenzoyl)oxy)benzoyl}-D-glucopyranose] | up to 50% | ≥ 0.1 µM | up to 95% | amount of TA adsorbed increases with TA concentration |
| COc1cc(-c2[o+]c3cc(O)cc(O)c3cc2O[C@@H]2O[C@H](CO)[C@@H](O)[C@H](O)[C@H]2O)cc(OC)c1O [malvidin-3-O-glucoside] | only TA, TGG, and corilagin show a significant inhibitory effect | – | – | – |
| O=C(O[C@@H]1O[C@@H]2COC(=O)c3cc(O)c(O)c(O)c3-c3c(cc(O)c(O)c3O)C(=O)O[C@H]([C@H]1O)[C@@H]2O)c1cc(O)c(O)c(O)c1 [corilagin, β-1-O-galloyl-3,6-(R)-hexahydroxydiphenoyl-D-glucose] | up to 50% | ≥ 0.1 µM | – | – |
